Entries after “also recorded” stand apart in the source; their conditions may differ. Numbered stars: 1 amine (or outer) side, 2 acyl side, 3 side chain; on linkers, the order of the positions; unused ones are H or OH. Bridge positions count the residues as written; N and C are the ends. Square brackets hold non-standard residues; d marks the D form. Peptide text beside a SMILES is read from it. X1 = CC(C)CCCCCCCCC[C@H](CC(=O)[*:1])O[*:2]
Columns and labels:
[1] = tested on: OA-sensitized guinea pigs; assay: Bronchoalveolar lavage cell counts after antigen challenge; type: in vivo, guinea pig; conditions: for eosinophil count in BAL fluid: after ovalbumin challenge; for BAL eosinophils: 24 h after OA-challenge; for airway eosinophil influx after antigen challenge: guinea pig, in vivo
Description: Analysis of Bronchoalveolar Cells
(§1) After assessment of antigen-induced airway hyperresponsiveness or 24 h after IL-5 injection, airway inflammation was assessed. Immediately before and 1, 24, 48, and 72 h after antigen challenge, bronchoalveolar lavage (BAL) was performed to determine the time-course of cellular infiltration into airways. Two aliquots of 10 ml sterile 37° C. saline were infused into the tracheal cannula. The BAL fluid was recovered manually by gentle aspiration with a disposable syringe after each infusion. The total cell number was determined using a Turk solution. Differential cell counts were performed on cytospin preparations (Cytospin 2, Shandon, England) by counting 300 cells after staining by the May-Grüwald-Giemsa method in a single-blind method.

[2] = tested on: guinea pigs; assay: IL-5-induced airway eosinophil accumulation (BAL); type: in vivo, guinea pig; conditions: for BAL eosinophils: 24 h after IL-5 treatment; for airway eosinophil influx after treatment with IL-5: guinea pig, in vivo
Description: IL-5-Induced Airway Eosinophil Accumulation
Guinea pigs weighing 350 to 400 g were treated i.p. before IL-5 injection with TFMK (20 mg/kg), E6123 (0.1 mg/kg), or vehicle (n=7 in each group). Animals were lightly anesthetized with diethyl ether inhalation, and then 200 μl sterile PBS containing 20 ng IL-5 was intranasally injected into the airway.
as §1

[3] = tested on: OA-sensitized guinea pigs; assay: Antigen-induced airway hyperresponsiveness to methacholine (PC200); type: in vivo, guinea pig; conditions: for antigen (ovalbumin)-induced methacholine airway hyperresponsiveness: 24 h after OA challenge; for baseline airway responsiveness to methacholine: drug alone
Description: (§2) Guinea pigs weighing 200 to 250 g were actively sensitized by a modification of the method reported by Andersson et al., Int. Arch. Allergy Appl. […] Guinea pigs were pretreated with an i.p. injection of 30 mg/kg of cyclophosphamide. Two days later, the animals were immunized with 2.0 mg of ovalbumin and 100 mg of aluminum hydroxide [Al(OH)3]. A booster injection of 10 μg of OA together with 100 mg of Al(OH)3 was given 3 wk after the primary immunization.
Antigen-Induced Airway Hyperresponsiveness to Methacholine
Antigen-induced airway response to methacholine was measured 24 h after challenge. Guinea pigs were anaesthetized by an i.p. injection of 75 mg/kg of sodium pentobarbitone and were placed in a supine position. […] Exp. Path. […] After completion of all surgical procedures, the lungs were overinflated by two times tidal volume for two breaths by closing the outlet port of the respirator. This was done to standardize the volume history of the lungs. […] See Minami et al., Jpn.
Airway responsiveness to inhaled methacholine was expressed as the dose of methacholine required to provoke a 200% increase (PC200) in the Pao. Values for PC200 were logarithmically transformed for analysis and reported as the geometric mean [geometric SEM (GSEM)]. All measurements except for PC200 were expressed as mean±SEM. Variation between three or more groups was analyzed using analysis of variance (ANOVA) followed by Fisher's protected least significant difference. Variation between two groups was tested using Student's t test. A value of p<0.05 was accepted as an indication of statistical significance.

[4] = tested on: OA-sensitized guinea pigs; assay: Antigen-induced bronchoconstriction: specific airway resistance (sRaw) after ovalbumin challenge; type: in vivo, guinea pig; conditions: for sRaw: drug alone; for increase in sRaw caused by OA challenge (immediate bronchoconstriction): pre-treatment i.p. 60 min before antigen challenge
Source text: Male albino Hartley strain guinea pigs were obtained from Sankyou Laboratory Service (Toyama, Japan), and were quarantined in the Animal Research Center of Kanazawa University for 1 wk before study. All animal procedures in this study complied with the standards specified in the Guideline for the Care and Use of Laboratory Animals at the Takara-machi Campus of Kanazawa University.
as §2
Animals were placed in a whole-body, double-chamber plethysmograph for measurement of specific airway resistance (sRaw) by a modification of the method described by Pennock et al., Appl. […] A respiratory mechanics analyzer (model PMUA+SAR, Buxco Electronics, Troy, N.Y.) was used to measure the phase shift between nasal and thoracic airflow and to compute sRaw on a breath by breath basis. A bias flow of air (20 ml/sec) was maintained through the nasal chamber to ensure a constant supply of fresh air to the animal. The analyzer subtracted this flow from its calculations. […] The nebulizer output was 0.14 ml/min. Baseline measurement of sRaw was obtained in all groups 5 min before antigen challenge.

[5] = target: T1, cPLA2 (Homo sapiens, UniProt P47712); conditions: Zhu et al., J. Immunol. 163:3423-3429, 1999; cited from earlier work
T1 sequence (P47712 1-749): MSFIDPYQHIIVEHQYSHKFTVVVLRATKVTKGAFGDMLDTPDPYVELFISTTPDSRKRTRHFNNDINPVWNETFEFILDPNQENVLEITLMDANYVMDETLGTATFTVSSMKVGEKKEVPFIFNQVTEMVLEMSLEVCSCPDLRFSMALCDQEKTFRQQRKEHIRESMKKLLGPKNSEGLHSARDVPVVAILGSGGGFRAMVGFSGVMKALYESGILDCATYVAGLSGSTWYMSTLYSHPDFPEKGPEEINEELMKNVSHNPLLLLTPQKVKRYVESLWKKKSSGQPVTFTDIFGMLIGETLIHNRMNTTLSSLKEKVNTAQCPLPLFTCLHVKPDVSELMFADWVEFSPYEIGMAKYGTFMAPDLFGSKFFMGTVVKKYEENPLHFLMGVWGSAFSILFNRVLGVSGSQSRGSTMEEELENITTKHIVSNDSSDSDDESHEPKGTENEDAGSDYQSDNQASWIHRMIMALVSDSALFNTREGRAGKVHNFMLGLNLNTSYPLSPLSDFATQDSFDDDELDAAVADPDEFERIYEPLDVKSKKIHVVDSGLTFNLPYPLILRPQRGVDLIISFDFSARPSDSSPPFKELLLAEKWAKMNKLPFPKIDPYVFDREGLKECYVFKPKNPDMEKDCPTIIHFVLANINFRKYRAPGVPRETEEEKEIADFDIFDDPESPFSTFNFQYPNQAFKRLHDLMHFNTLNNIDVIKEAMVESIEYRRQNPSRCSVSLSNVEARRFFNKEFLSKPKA

[6] = tested on: TXB2 production from whole blood; assay: Effect of i.p. TFMK on TXB2 production ex vivo (FMLP/CB-stimulated whole blood); type: in vivo, guinea pig; conditions: FMLP 10^−6 M + 5 μg/ml cytochalasin B; after 20 mg/kg i.p. TFMK
Description: Effect of i.p. TFMK on TXB2 Production ex vivo
Sixty min after TFMK (20 mg/kg or vehicle i.p.; n=4 in each group), guinea pigs were anesthetized and heparinized blood (20 U/ml) was obtained via right carotid artery. Duplicate 1-ml aliquots of whole blood were incubated first with 5 μg/ml CB for 2 min and subsequently with 10^−6 M FMLP for 30 additional min at room temperature. Control samples from the same animals were incubated with buffer alone. Immediately after centrifugation, TXB2 was measured by enzyme immunoassay using reagents obtained from Cayman Chemical (Ann Arbor, Mich.).

[7] = tested on: bronchial airways; assay: Lung histology after ovalbumin challenge; type: in vivo, guinea pig; conditions: 2-20 mg/kg TFMK, 24 h
Source text: After washing with sterile saline, the lung was fixed by perfusion with 10% formalin. Lung sections were stained with hematoxylin and eosin.

Row | SMILES | eosinophil count in BAL fluid [1] | BAL eosinophils [2] | airway eosinophil influx after treatment with IL-5 [2] | antigen (ovalbumin)-induced methacholine airway hyperresponsiveness [3] | baseline airway responsiveness to methacholine [3] | sRaw [4] | increase in sRaw caused by OA challenge (immediate bronchoconstriction) [4] | BAL eosinophils [1] | airway eosinophil influx after antigen challenge [1] | other results
1 | CC1=C(C)C(=O)C(CCCCC#CCCCC#CCO)=C(C)C1=O [AA-861] | no effect |  |  |  |  |  |  |  |  | 
2 | Cc1nnc2n1-c1sc3c(c1C(c1ccccc1Cl)=N[C@H]2C)CCN(C(=O)C1CC1)C3 [E6123] |  | 0.4±0.1 ×10^5/ml | dose-dependently blocked | complete blockade | not altered; also recorded: neither drug alone had any effect | neither drug alone had any effect | not attenuated | 1.6±0.6 ×10^5/ml | dose-dependently blocked | BAL total cell number ([2]; after IL-5 treatment): 3.3±0.4 ×10^5/ml
3 | CC(C)CCCCCCCCC[C@@H]1CC(=O)N[C@@H](CCC(=O)O)C(=O)N[C@@H](CC(C)C)C(=O)N[C@H](CC(C)C)C(=O)N[C@@H](C(C)C)C(=O)N[C@@H](CC(=O)O)C(=O)N[C@H](CC(C)C)C(=O)N[C@@H](CC(C)C)C(=O)O1 [Surfactin] (EL[dL]VD[dL]L; linker N-C via X1) |  |  |  |  |  |  |  |  |  | activity of cPLA2 [5]: inhibit or reduce the activity
4 | CCCCC/C=C\C/C=C\C/C=C\C/C=C\CCCC(=O)C(F)(F)F [TFMK, arachidonic trifluoromethyl ketone] |  | 0.7±0.2 ×10^5/ml | dose-dependently blocked |  | not altered; also recorded: neither drug alone had any effect | neither drug alone had any effect | not attenuated | 2.1±0.7 ×10^5/ml | dose-dependently blocked | increase in stimulated TXB2 production from whole blood [6]: 13.5±10.5%; inflammatory cell infiltration in epithelial layer and lamina propria (histology) [7]: blocked cell infiltration progressively; PC200 (provocative concentration of methacholine causing a 200% increase in Pao) ([3]; antigen challenged animals pretreated with 20 mg/kg TFMK, 24 h after challenge, geometric mean (GSEM)): 218 ± 0.08 µg/mL
5 | CC(C)(C)c1ccc(C(=O)CCCN2CCC(OC(c3ccccc3)c3ccccc3)CC2)cc1 [ebastine] |  |  |  | had no effect |  |  | significantly attenuated |  |  | 
6 | COc1ccc2c(c1)c(CC(=O)O)c(C)n2C(=O)c1ccc(Cl)cc1 [indomethacin] | no effect |  |  | neither indomethacin, a COX inhibitor, nor AA861, a 5-LO inhibitor, blocked |  |  | not attenuated |  |  | 

Source: patent US20020165119A1, “Method of treating inflammatory conditions by inhibiting cytosolic phospholipase A2” (priority 2001, published 2002)
